According to PMC6147235 (iScience, 2018):

System: WT OPS, G51A, T17M, P171Q, P180A
Experiment: Subcellular localization
Format: cell-based, human
Conditions: 10 µM all-trans retinal, P180A in COS-7 cells

## CC1=C(/C=C/C(C)=C/C=C/C(C)=C/C=O)C(C)(C)CCC1 [all-trans retinal]
  effect on subcellular localization (PCC and RetP1/1D4): no effect
